Measured values taken from patent publication US11168073B2, “3,3-difluoroallylamines or salts thereof and pharmaceutical compositions comprising the same” (YUHAN CORPORATION, priority 2018, dated 2021).
Counter-ions that a name gives are not always drawn.

Assays:
Type in all cases: biochemical
[1] = target: T1, recombinant human VAP-1 (Homo sapiens, UniProt Q16853); experiment: Activity evaluation on recombinant human VAP-1 (Amplex Red/HRP-coupled hydrogen peroxide assay, benzylamine substrate); conditions: recombinant human VAP-1, benzylamine substrate; read-out: Inhibitory Activity (IC50, nM) human VAP-1
T1 construct: purchased R&D systems
T1 sequence (Q16853 1-763): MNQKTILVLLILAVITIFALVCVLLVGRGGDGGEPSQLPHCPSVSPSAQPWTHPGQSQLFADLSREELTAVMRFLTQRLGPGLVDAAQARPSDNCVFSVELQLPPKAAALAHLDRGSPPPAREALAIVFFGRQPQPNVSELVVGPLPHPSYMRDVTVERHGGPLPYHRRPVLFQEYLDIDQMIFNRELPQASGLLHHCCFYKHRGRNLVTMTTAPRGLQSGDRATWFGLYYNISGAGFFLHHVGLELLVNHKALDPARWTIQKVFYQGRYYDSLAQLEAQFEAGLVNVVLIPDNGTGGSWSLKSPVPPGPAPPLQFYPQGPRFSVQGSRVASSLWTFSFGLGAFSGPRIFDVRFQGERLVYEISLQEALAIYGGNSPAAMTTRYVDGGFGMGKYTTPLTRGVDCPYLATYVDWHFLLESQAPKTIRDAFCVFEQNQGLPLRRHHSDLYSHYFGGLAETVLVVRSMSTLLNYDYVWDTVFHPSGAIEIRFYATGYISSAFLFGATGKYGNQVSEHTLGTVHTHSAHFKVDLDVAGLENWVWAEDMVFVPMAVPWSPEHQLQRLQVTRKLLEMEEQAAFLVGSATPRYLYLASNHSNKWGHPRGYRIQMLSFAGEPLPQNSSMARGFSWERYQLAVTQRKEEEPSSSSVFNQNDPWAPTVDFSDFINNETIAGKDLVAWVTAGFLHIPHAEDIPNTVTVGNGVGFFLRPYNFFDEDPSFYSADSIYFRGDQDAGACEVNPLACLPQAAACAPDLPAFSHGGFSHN
Method in brief: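 Hydrogen peroxide from benzylamine (1 mM) oxidation by human recombinant VAP-1 detected via HRP-coupled Amplex Red (200 uM) fluorescence, kinetic over 1–2 h. Enzyme and compound preincubated 30 min at 37 °C, pH 7.4 phosphate; 8-point dose response, signal-rate decrease versus DMSO control fitted to four-parameter logistic for IC50.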

[2] = target: T2, recombinant human MAO-A (monoamine oxidase-A) (Homo sapiens, UniProt P21397); experiment: Activity evaluation on recombinant human MAO-A (Amplex Red/HRP-coupled assay, 0.5 mM tyramine substrate); conditions: 0.5 mM tyramine substrate, read-out: Inhibitory Activity (IC50, nM) MAO-A
T2 construct: purchased Sigma-Aldrich
T2 sequence (P21397 1-527): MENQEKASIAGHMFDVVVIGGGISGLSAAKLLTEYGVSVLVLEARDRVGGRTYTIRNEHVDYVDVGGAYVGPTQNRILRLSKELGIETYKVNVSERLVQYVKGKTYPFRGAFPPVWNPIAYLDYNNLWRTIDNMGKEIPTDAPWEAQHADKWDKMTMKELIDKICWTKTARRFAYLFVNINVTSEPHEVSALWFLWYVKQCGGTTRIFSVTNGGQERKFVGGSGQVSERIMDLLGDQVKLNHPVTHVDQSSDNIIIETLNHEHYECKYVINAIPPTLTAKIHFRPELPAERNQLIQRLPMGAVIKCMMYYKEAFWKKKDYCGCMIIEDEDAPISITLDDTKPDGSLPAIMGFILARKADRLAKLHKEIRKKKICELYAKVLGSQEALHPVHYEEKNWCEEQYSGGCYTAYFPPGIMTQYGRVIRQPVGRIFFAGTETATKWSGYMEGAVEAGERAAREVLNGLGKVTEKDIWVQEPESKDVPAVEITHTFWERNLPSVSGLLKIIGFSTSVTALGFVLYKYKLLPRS
Method in brief: (§1)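 Using an HRP-coupled Amplex Red readout (544/590 nm, kinetic over 1–2 h), IC50 values were fitted by 4-parameter logistic model to percent decrease in signal rate against DMSO control. Compounds (1:3 dilutions, 8 points, <1% DMSO) sat 30 min at 37 °C with enzyme in pH 7.4 phosphate buffer before substrate, 200 uM Amplex Red and HRP were added.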

[3] = target: T3, recombinant human MAO-B (monoamine oxidase-B) (Homo sapiens, UniProt P27338); experiment: Activity evaluation on recombinant human MAO-B (Amplex Red/HRP-coupled assay, 1 mM benzylamine substrate); conditions: 1 mM benzylamine substrate, read-out: Inhibitory Activity (IC50, nM) MAO-B
T3 construct: purchased Sigma-Aldrich
T3 sequence (P27338 1-520): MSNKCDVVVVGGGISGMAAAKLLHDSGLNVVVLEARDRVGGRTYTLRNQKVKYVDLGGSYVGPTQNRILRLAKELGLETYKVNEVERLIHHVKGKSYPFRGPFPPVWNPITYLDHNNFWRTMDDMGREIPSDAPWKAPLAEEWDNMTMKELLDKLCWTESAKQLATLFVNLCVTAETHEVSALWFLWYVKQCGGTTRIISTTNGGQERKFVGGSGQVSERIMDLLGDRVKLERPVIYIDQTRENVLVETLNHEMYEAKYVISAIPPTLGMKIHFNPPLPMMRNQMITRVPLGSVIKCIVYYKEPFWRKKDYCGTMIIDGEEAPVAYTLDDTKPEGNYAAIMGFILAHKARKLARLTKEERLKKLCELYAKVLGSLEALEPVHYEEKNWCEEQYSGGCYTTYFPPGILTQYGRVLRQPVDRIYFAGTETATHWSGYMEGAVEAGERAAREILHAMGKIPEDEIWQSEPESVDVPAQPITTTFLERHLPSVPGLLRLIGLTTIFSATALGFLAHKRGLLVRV
Method in brief: as §1

[4] = target: T4, recombinant human DAO (diamine oxidase) (Homo sapiens, UniProt P19801); experiment: Activity evaluation on recombinant human DAO (Amplex Red/HRP-coupled assay, 1 mM putrescine substrate); conditions: 1 mM putrescine substrate, read-out: Inhibitory Activity (IC50, nM) DAO
T4 construct: purchased R&D systems
T4 sequence (P19801 20-751): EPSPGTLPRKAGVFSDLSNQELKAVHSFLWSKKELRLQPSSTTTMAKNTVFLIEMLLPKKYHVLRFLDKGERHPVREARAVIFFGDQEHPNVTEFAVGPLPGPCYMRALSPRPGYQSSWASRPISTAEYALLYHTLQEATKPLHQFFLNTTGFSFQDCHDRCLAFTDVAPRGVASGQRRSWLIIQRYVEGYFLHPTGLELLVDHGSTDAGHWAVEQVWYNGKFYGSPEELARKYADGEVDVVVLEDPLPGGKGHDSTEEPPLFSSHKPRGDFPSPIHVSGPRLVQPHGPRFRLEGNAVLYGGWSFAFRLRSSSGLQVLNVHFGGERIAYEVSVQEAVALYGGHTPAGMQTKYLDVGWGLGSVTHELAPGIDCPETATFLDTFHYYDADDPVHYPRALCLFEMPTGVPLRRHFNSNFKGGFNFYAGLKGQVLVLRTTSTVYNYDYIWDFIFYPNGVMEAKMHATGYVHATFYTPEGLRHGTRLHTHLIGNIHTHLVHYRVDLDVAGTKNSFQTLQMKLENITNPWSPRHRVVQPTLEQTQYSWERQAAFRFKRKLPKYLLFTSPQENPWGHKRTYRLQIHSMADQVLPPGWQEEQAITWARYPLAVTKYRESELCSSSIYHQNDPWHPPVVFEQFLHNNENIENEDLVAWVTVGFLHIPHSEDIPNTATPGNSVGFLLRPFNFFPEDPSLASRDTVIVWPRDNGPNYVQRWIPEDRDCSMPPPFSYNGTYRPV
Method in brief: as §1

Structure (SMILES)	IC50 [1]	IC50 [2]	IC50 [3]	IC50 [4]
Cc1c(-c2ccc(S(C)(=O)=O)cc2)cccc1-n1cnn(CC(CN)=C(F)F)c1=O [Example 253, 2-[2-(aminomethyl)-3,3-difluoro-allyl]-4-[2-methyl-3-(4-methylsulfonylphenyl)phenyl]-1,2,4-triazol-3-one Trifluoroacetate]	2.8 nM	> 100000 nM	> 100000 nM	8700 nM
Cc1c(-c2ccc(N3CCNCC3)cc2)cccc1-n1cnn(CC(CN)=C(F)F)c1=O [Example 254, 2-[2-(aminomethyl)-3,3-difluoro-allyl]-4-[2-methyl-3-(4-piperazin-1-ylphenyl)phenyl]-1,2,4-triazol-3-one Ditrifluoroacetate]	8 nM	> 100000 nM	> 100000 nM	> 100000 nM
Cc1c(-c2ccc(C(F)(F)F)nc2)cccc1-n1cnn(CC(CN)=C(F)F)c1=O [Example 255, 2-[2-(aminomethyl)-3,3-difluoro-allyl]-4-[2-methyl-3-[6-(trifluoromethyl)-3-pyridyl]phenyl]-1,2,4-triazol-3-one Trifluoroacetate]	2.3 nM	> 100000 nM	> 100000 nM	35000 nM
Cc1c(-c2ccc3c(c2)OCO3)cccc1-n1cnn(CC(CN)=C(F)F)c1=O [Example 257, 2-[2-(aminomethyl)-3,3-difluoro-allyl]-4-[3-(1,3-benzodioxol-5-yl)-2-methyl-phenyl]-1,2,4-triazol-3-one Trifluoroacetate]	2.4 nM	> 100000 nM	101000 nM	> 100000 nM
CCn1cc(-c2cccc(-n3cnn(CC(CN)=C(F)F)c3=O)c2C)cn1 [Example 260, 2-[2-(aminomethyl)-3,3-difluoro-allyl]-4-[3-(1-ethylpyrazol-4-yl)-2-methyl-phenyl]-1,2,4-triazol-3-one Trifluoroacetate]	3.7 nM	> 100000 nM	> 100000 nM	> 100000 nM

Continued, values first:

IC50 [1]	IC50 [2]	IC50 [3]	IC50 [4]	Structure (SMILES)
2.7 nM	> 100000 nM	14000 nM	> 100000 nM	Cc1cc(C#Cc2cnc3c(c2)OCC(=O)N3)cnc1-n1cnn(CC(CN)=C(F)F)c1=O [Example 248, 7-[2-[6-[1-[2-(aminomethyl)-3,3-difluoro-allyl]-5-oxo-1,2,4-triazol-4-yl]-5-methyl-3-pyridyl]ethynyl]-4H-pyrido[3,2-b][1,4]oxazin-3-one trifluoroacetate]
0.9 nM	> 100000 nM	3100 nM	3900 nM	Cc1cc(C#Cc2ccc3c(c2)CCC(=O)N3)cnc1-n1cnn(CC(CN)=C(F)F)c1=O [Example 249, 6-[2-[6-[1-[2-(aminomethyl)-3,3-difluoro-allyl]-5-oxo-1,2,4-triazol-4-yl]-5-methyl-3-pyridyl]ethynyl]-3,4-dihydro-1H-quinolin-2-one Trifluoroacetate]
0.2 nM	> 100000 nM	> 100000 nM	4300 nM	Cc1cc(-c2ccc3c(c2)CN(C)C(=O)N3)cnc1-n1cnn(CC(CN)=C(F)F)c1=O [Example 250, 6-[6-[1-[2-(aminomethyl)-3,3-difluoro-allyl]-5-oxo-1,2,4-triazol-4-yl]-5-methyl-3-pyridyl]-3-methyl-1,4-dihydroquinazolin-2-one Trifluoroacetate]
1.5 nM	> 100000 nM	18000 nM	19000 nM	Cc1cc(-c2cnn(C(F)F)c2)cnc1-n1cnn(CC(CN)=C(F)F)c1=O [Example 251, 2-[2-(aminomethyl)-3,3-difluoro-allyl]-4-[5-[1-(difluoromethyl)pyrazol-4-yl]-3-methyl-2-pyridyl]-1,2,4-triazol-3-one Trifluoroacetate]
1 nM	> 100000 nM	35000 nM	17000 nM	Cc1cc(-c2cnn(C(C)C)c2)cnc1-n1cnn(CC(CN)=C(F)F)c1=O [Example 252, 2-[2-(aminomethyl)-3,3-difluoro-allyl]-4-[5-(1-isopropylpyrazol-4-yl)-3-methyl-2-pyridyl]-1,2,4-triazol-3-one Trifluoroacetate]
2.5 nM	> 100000 nM	> 100000 nM	> 100000 nM	Cc1c(-c2ccc(N(C)C)nc2)cccc1-n1cnn(CC(CN)=C(F)F)c1=O [Example 256, 2-[2-(aminomethyl)-3,3-difluoro-allyl]-4-[3-[6-(dimethylamino)-3-pyridyl]-2-methyl-phenyl]-1,2,4-triazol-3-one Trifluoroacetate]
2.5 nM	> 100000 nM	> 100000 nM	> 100000 nM	Cc1cc(-c2cccc(-n3cnn(CC(CN)=C(F)F)c3=O)c2C)cc2c1NC(=O)CC2 [Example 258, 6-[3-[1-[2-(aminomethyl)-3,3-difluoro-allyl]-5-oxo-1,2,4-triazol-4-yl]-2-methyl-phenyl]-8-methyl-3,4-dihydro-1H-quinolin-2-one Trifluoroacetate]
1.3 nM	> 100000 nM	> 100000 nM	> 100000 nM	Cc1c(-c2ccc3c(c2)CCC(=O)N3C)cccc1-n1cnn(CC(CN)=C(F)F)c1=O [Example 259, 6-[3-[1-[2-(aminomethyl)-3,3-difluoro-allyl]-5-oxo-1,2,4-triazol-4-yl]-2-methyl-phenyl]-1-methyl-3,4-dihydroquinolin-2-one Trifluoroacetate]
